Test system: 422866-222-R5-J1-PDC spheroid viability
Assay: Anticancer human tumor 422866-222-R5-J1-PDC patient-derived pancreatic adenocarcinoma cell line growth inhibition [CLK]
Details: spheroids with HUVEC and MSC; for IC50: curve of first compound; for viability, T/C: stronger effect = lower value
In short: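 Patient-derived tumor cells grown as complex spheroids with HUVEC endothelial cells and mesenchymal stem cells, treated with drug combinations. Concentrations descend in half-log steps from near clinical Cmax, or from 10 microM if Cmax unknown.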
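Further: spheroids exposed to agents for seven days before readout.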

C=CC(=O)Nc1cc(Nc2nccc(-c3cn(C)c4ccccc34)n2)c(OC)cc1N(C)CCN(C)C + CNC(=O)c1ccc(Nc2nc(OC3CCCC3)c3c(-c4ccc5nc(C)oc5c4)c[nH]c3n2)c(OC)c1
IC50 (second compound 0.0316 µM): > 0.3 µM
IC50 (second compound 0.1 µM): > 0.3 µM
IC50 (second compound 0.316 µM): > 0.3 µM
IC50 (second compound 1 µM): > 0.3 µM
IC50 (second compound 3.16 µM): > 0.3 µM
IC50 (second compound 10 µM): > 0.3 µM
viability, T/C (second compound 0.0316 µM, first compound 0.000949 µM): 98.9%
viability, T/C (second compound 0.0316 µM, first compound 0.003 µM): 98.2%
viability, T/C (second compound 0.0316 µM, first compound 0.00949 µM): 85.4%
viability, T/C (second compound 0.0316 µM, first compound 0.03 µM): 79.2%
viability, T/C (second compound 0.0316 µM, first compound 0.0949 µM): 69.7%
viability, T/C (second compound 0.0316 µM, first compound 0.3 µM): 77.1%
viability, T/C (second compound 0.1 µM, first compound 0.000949 µM): 103%
viability, T/C (second compound 0.1 µM, first compound 0.003 µM): 82.9%
viability, T/C (second compound 0.1 µM, first compound 0.00949 µM): 74.5%
viability, T/C (second compound 0.1 µM, first compound 0.03 µM): 71.8%
viability, T/C (second compound 0.1 µM, first compound 0.0949 µM): 70.7%
viability, T/C (second compound 0.1 µM, first compound 0.3 µM): 57.1%
viability, T/C (second compound 0.316 µM, first compound 0.000949 µM): 66.3%
viability, T/C (second compound 0.316 µM, first compound 0.003 µM): 73.5%
viability, T/C (second compound 0.316 µM, first compound 0.00949 µM): 68%
viability, T/C (second compound 0.316 µM, first compound 0.03 µM): 58.7%
viability, T/C (second compound 0.316 µM, first compound 0.0949 µM): 59.2%
viability, T/C (second compound 0.316 µM, first compound 0.3 µM): 60.7%
viability, T/C (second compound 1 µM, first compound 0.000949 µM): 60.8%
viability, T/C (second compound 1 µM, first compound 0.003 µM): 65.8%
viability, T/C (second compound 1 µM, first compound 0.00949 µM): 60.9%
viability, T/C (second compound 1 µM, first compound 0.03 µM): 65.5%
viability, T/C (second compound 1 µM, first compound 0.0949 µM): 59.3%
viability, T/C (second compound 1 µM, first compound 0.3 µM): 54.8%
viability, T/C (second compound 3.16 µM, first compound 0.000949 µM): 52.8%
viability, T/C (second compound 3.16 µM, first compound 0.003 µM): 61.6%
viability, T/C (second compound 3.16 µM, first compound 0.00949 µM): 60.4%
viability, T/C (second compound 3.16 µM, first compound 0.03 µM): 56.4%
viability, T/C (second compound 3.16 µM, first compound 0.0949 µM): 62.7%
viability, T/C (second compound 3.16 µM, first compound 0.3 µM): 54.9%
viability, T/C (second compound 10 µM, first compound 0.000949 µM): 69.6%
viability, T/C (second compound 10 µM, first compound 0.003 µM): 68.8%
viability, T/C (second compound 10 µM, first compound 0.00949 µM): 63.5%
viability, T/C (second compound 10 µM, first compound 0.03 µM): 62.4%
viability, T/C (second compound 10 µM, first compound 0.0949 µM): 55.6%
viability, T/C (second compound 10 µM, first compound 0.3 µM): 51.7%
